Literature values as cited in USRE39151E1, “Process for the preparation and purification of thiol-containing maytansinoids” (Immunogen, Inc., priority 2000, dated 2006).

What was measured:
[1] = system: LY5178 murine leukemic cell suspensions; details: in vitro, LY5178 cell suspension
[2] = patients
[3] = system: B-16 melanocarcinoma system
tubulin = details: sea urchin eggs and clam eggs
[4] = system: Lewis lung carcinoma system
[5] = system: P388 lymphocytic leukemia system; details: in vivo
[6] = system: L1210 mouse leukemia system
[7] = system: P388 murine leukemic cell suspensions; details: in vitro, P388 cell suspension
L1210 cells = L1210 cells treated in vivo; untreated control mitotic index 3.2 to 5.8%
[8] = system: human acute lymphoblastic leukemia line C.E.M.
[9] = versus methotrexate, daunorubicin, and vincristine
[10] = system: human nasopharyngeal carcinoma cells
[11] = system: L1210 murine leukemic cell suspensions; details: in vitro, L1210 cell suspension

COc1cc2cc(c1Cl)N(C)C(=O)C[C@H](OC(=O)[C@H](C)N(C)C(C)=O)[C@]1(C)O[C@H]1[C@H](C)[C@@H]1C[C@@](O)(NC(=O)O1)[C@H](OC)/C=C/C=C(\C)C2 [maytansine]
inhibitory dose [1]: 10^−3 to 10^−1 microgram/mL | adverse effects in clinical trials [2]: associated with peripheral neuropathy that might be cumulative | outcome of clinical trials [2]: not favorable due to a number of side effects | inhibitory activity in vivo [3]: significant inhibitory activity | effect on mitosis / microtubule formation (tubulin): inhibits mitosis by interfering with the formation of microtubules | inhibitory activity in vivo [4]: significant inhibitory activity | dosage range over which tumor growth was inhibited [5]: 50- to 100 fold | inhibitory activity in vivo [6]: significant inhibitory activity | inhibitory dose [7]: 10^−3 to 10^−1 microgram/mL | cells accumulating in mitosis (L1210 cells): 67% | inhibitory concentration [8]: ≥ 10^−7 microgram/ml | fold more cytotoxic than conventional cancer chemotherapeutic agents [9]: 100 to 1000 fold | inhibition of in vitro growth [10]: active inhibitor | inhibitory dose [11]: 10^−3 to 10^−1 microgram/mL
